What was measured:
[1] = test system: IL-17A secreted from antiCD3/CD28 stimulated Peripheral Blood Mononuclear cells (PBMC); test: Peripheral Blood Mononucleocyte Cell Assay (PBMC Assay - IL-17); format: cell-based; conditions: inhibition of IL-17A release, human PBMC stimulated with CD3/CD28 beads, 48 hours; read-out: mean pIC50 (converted)
Method: Peripheral Blood Mononucleocyte Cell Assay (PBMC Assay—IL-17)
This assay is designed to measure levels of IL-17A secreted from antiCD3/CD28 stimulated frozen Peripheral Blood Mononuclear cells (PBMC) isolated from human blood with the aim of identifying inhibitors of IL-17A release.
2. The compounds for screening are dispensed into a master plate at 10 mM top concentration which are serially diluted 1:3 across 11 points in DMSO, then 500 nl is transferred into a 384-well flat-bottomed Greiner plate to which 50 ul of cell suspension is added: for the single shot screening the highest concentration of compound is 10^−5 M; for 11 point full curve dose response studies the highest concentration is 10^−4 M.
As a low control, DMSO (as supplied, for example, by VWR) (final concentration 1%) in column 6 (16 points).
As a high control, 5-(4-fluorophenyl)-2-ureidothiophene-3-carboxamide (obtainable from, for example, Sigma) at a final concentration of 10^−4 M in DMSO should be used in column 18 (16 points).
9. Make the cell suspension at the concentration 8×10^5 cells/mL. to give a final number of 40,000 cells/well.
1. Add well mixed CD3/CD28 Dynabeads (as supplied, for example, by Dynal) to achieve ratio bead:cell=2:1 (i.e a dilution of 1 in 20). Mix thoroughly.
2. Dispense the suspension into the 384 Assay Plates using Multidrop (50 ul per well). If the volume of cell suspension is large, mix the suspension after dispensing into every other plate.
3. Cover the plates with the lids and place them to the humidified incubator (37° C., 5% CO2) for 48 hours.
1. Block cytokine capture Mesoscale Discovery MSD plates with 0.1% Block buffer B (provided by Mesoscale Discovery) in D-PBS solution using 40 ul per well.
1. Transfer 10 ul of supernatants from assay plates to the MSD plates using Cybiwell. Ensure that all wells are covered with the solution. Tap the plate gently, if some of the wells are not covered with the supernatant.
3. Add 10 ul of MSD IL-17 detecting antibody using multidrop (1 ug/mL in D-PBS without Ca^2+ and Mg^2+ (supplied, for example, by Gibco)).
4. Cover the plates with adhesive foil and incubated with shaking for 3 hours at room temperature
7. Add 35 ul of MSD Read Buffer T×2 using multidrop.
8. Read plates on MSD MA6000 reader using the 384 well plate protocol as per manufacturer's instructions.

[2] = molecular target: T1, RORγ ligand binding domain (RORγ-LBD) (Homo sapiens, UniProt P51449); test: Dual Fluorescence Energy Transfer (FRET) Assay; format: biochemical; conditions: RORγ-LBD / SRC1(2) co-activator peptide interaction, read-out: mean pIC50 (converted)
T1 construct: His6 with thrombin site) (N); made in house; host or cells: E. coli BL21(DE3), modified pET21a vector
T1 sequence (P51449 263-518): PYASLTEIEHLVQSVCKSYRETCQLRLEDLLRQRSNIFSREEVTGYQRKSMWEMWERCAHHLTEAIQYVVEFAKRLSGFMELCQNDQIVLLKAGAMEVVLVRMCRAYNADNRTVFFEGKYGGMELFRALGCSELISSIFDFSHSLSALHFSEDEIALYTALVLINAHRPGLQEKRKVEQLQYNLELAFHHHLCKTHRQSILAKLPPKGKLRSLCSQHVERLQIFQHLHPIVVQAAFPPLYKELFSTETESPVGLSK
Text: Dual Fluorescence Energy Transfer (FRET) Assay
This assay is based on the knowledge that nuclear receptors interact with cofactors (transcription factors) in a ligand dependent manner. RORγ is a typical nuclear receptor in that it has an AF2 domain in the ligand binding domain (LBD) which interacts with co-activators. The sites of interaction have been mapped to the LXXLL (SEQ ID NO:1) motifs in the co-activator SRC 1(2) sequences. Short peptide sequences containing the LXXLL (SEQ ID NO:1) motif mimic the behavior of full-length co-activator.
This assay measures ligand-mediated interaction of the co-activator peptide with the purified bacterial-expressed RORγ ligand binding domain (RORγ-LBD) to indirectly assess ligand binding. RORγ has a basal level of interaction with the co-activator SRC1(2) in the absence of ligand, Thus, it is possible to find ligands that inhibit or enhance the RORγ/SRC1(2) interaction.
Human RORγ Ligand Binding Domain (RORγ-LBD) was expressed in E. coli strain BL21(DE3) as an amino-terminal polyhistidine tagged fusion protein. DNA encoding this recombinant protein was sub-cloned into a modified pET21a expression vector (Novagen). A modified polyhistidine tag ([…]) (SEQ ID NO:2) was fused in frame to residues 263-518 of the human RORγ sequence.
Approximately 50 g E. coli cell pellet was resuspended in 300 mL of lysis buffer (30 mM imidazole pH 7.0 and 150 mM NaCl). Cells were lysed by sonication and cell debris was removed by centrifugation for 30 minutes at 20,000 g at 4° C. The cleared supernatant was filtered through a 0.45 uM cellulose acetate membrane filter. The clarified lysate was loaded onto a column (XK-26) packed with ProBond Nickel Chelating resin (InVitrogen), pre-equilibrated with 30 mM imidazole pH 7.0 and 150 mM NaCl. After washing to baseline absorbance with the equilibration buffer, the column was developed with a gradient from 30 to 500 mM imidazole pH 7.0. Column fractions containing the RORγ-LBD protein were pooled and concentrated to a volume of 5 mLs. The concentrated protein was loaded onto a Superdex 200 column pre-equilibrated with 20 mM Tris-Cl pH 7.2 and 200 mM NaCl. The fractions containing the desired RORγ-LBD protein were pooled together.
Purified RORγ-LBD was buffer exchanged by exhaustive dialysis [3 changes of at least 20 volumes (8000×)] against PBS [100 mM NaPhosphate, pH 8 and 150 mM NaCl]. The concentration of RORγ-LBD was approximately 30 uM in PBS. Five-fold molar excess of NHS-LC-Biotin (Pierce) was added in a minimal volume of PBS. This solution was incubated with occasional gentle mixing for 60 minutes at ambient room temperature. The modified RORγ-LBD was dialyzed against 2 buffer changes—TBS pH 8.0 containing 5 mM DTT, 2 mM EDTA and 2% sucrose—each at least 20 times of the volume. The modified protein was distributed into aliquots, frozen on dry ice and stored at −80° C. The biotinylated RORγ-LBD was subjected to mass spectrometric analysis to reveal the extent of modification by the biotinylation reagent. In general, approximately 95% of the protein had at least a single site of biotinylation and the overall extent of biotinylation followed a normal distribution of multiple sites ranged from one to five.
A biotinylated peptide corresponding to amino acid 676 to 700 ([…]) (SEQ ID NO:3) of the co-activator steroid receptor coactivator SRC1(2) was generated using similar method.
Biotinylated SRC1(2) solution was prepared by adding an appropriate amount of biotinylated SRC1(2) from the 100 uM stock solution to a buffer containing 10 mM of freshly added DTT from solid to give a final concentration of 40 nM. An appropriate amount of Europium labeled Streptavidin was then added to the biotinylated SRC1(2) solution in a tube to give a final concentration of 10 nM. The tube was inverted gently and incubated for 15 minutes at room temperature. […]

Compound `Cc1cc(C(C)C)cnc1N(CC(C)C)S(=O)(=O)c1ccc(OC[C@H]2CCNC[C@H]2F)cc1` (relative stereo) [Example 35, 4-((cis-3-fluoropiperidin-4-yl)methoxy)-N-isobutyl-N-(5-isopropyl-3-methylpyridin-2-yl)benzenesulfonamide] has an IC50 [1] of 1000 nM.
With `Cc1noc(C)c1COc1ccc(S(=O)(=O)N(CC(C)C)c2ccc(C(C)C)cn2)cc1` [Example 2, 4-((3,5-dimethylisoxazol-4-yl)-methoxy)-N-isobutyl-N-(5-isopropylpyridin-2-yl)benzenesulfonamide] the IC50 [2] was ≤ 31.6 nM and the IC50 [1] was 1000 nM.
With `Cc1noc(C)c1COc1ccc(S(=O)(=O)N(CC(C)C)c2nccc(C(F)(F)F)n2)cc1` [Example 14, 4-{[(3,5-dimethyl-4-isoxazolyl)methyl]oxy}-N-(2-methylpropyl)-N-[4-(trifluoromethyl)-2-pyrimidinyl]benzenesulfonamide] the IC50 [2] was > 10000 nM.
For `Cc1cnc(N(CC(C)C)S(=O)(=O)c2ccc(OCc3c(C)noc3C)cc2)c(C)c1` [Example 15, 4-{[(3,5-dimethyl-4-isoxazolyl)methyl]oxy}-N-(3,5-dimethyl-2-pyridinyl)-N-(2-methylpropyl)benzenesulfonamide], the IC50 [2] was ≤ 31.6 nM.
With `CCc1ccc(C)nc1N(CC(C)C)S(=O)(=O)c1ccc(OCc2c(C)noc2C)cc1` [Example 24, 4-((3,5-dimethylisoxazol-4-yl)methoxy)-N-(3-ethyl-6-methylpyridin-2-yl)-N-isobutylbenzenesulfonamide] the IC50 [2] was ≤ 31.6 nM and the IC50 [1] was 1000 nM.
In the case of `Cc1cc(C(C)C)cnc1N(CC(C)C)S(=O)(=O)c1ccc(OCC2CCOCC2)cc1` [Example 31, N-isobutyl-N-(5-isopropyl-3-methylpyridin-2-yl)-4-((tetrahydro-2H-pyran-4-yl)methoxy)benzenesulfonamide], the IC50 [2] is reported as ≤ 31.6 nM.
`C=C(C)c1cnc(N(CC(C)C)S(=O)(=O)c2ccc(OCC3CCOCC3)cc2)c(C)c1` [Example 32, N-isobutyl-N-(3-methyl-5-(prop-1-en-2-yl)pyridin-2-yl)-4-((tetrahydro-2H-pyranyl)methoxy)benzenesulfonamide] was tested, and the IC50 [2] was ≤ 31.6 nM.
`CC(C)CN(c1ccc(C(C)C)cn1)S(=O)(=O)c1ccc(OCC2CCOCC2)cc1` [Example 33, N-isobutyl-N-(5-isopropylpyridin-2-yl)-4-((tetrahydro-2H-pyran-4-yl)methoxy)benzenesulfonamide] was tested, and the IC50 [2] was ≤ 31.6 nM.
For `Cc1cc(Cl)cnc1N(CC(C)C)S(=O)(=O)c1ccc(OCC2CCOCC2)cc1` [Example 34, N-(5-chloro-3-methylpyridin-2-yl)-N-isobutyl-4-((tetrahydro-2H-pyran-4-yl)methoxy)benzenesulfonamide], the IC50 [2] was ≤ 31.6 nM.
`CC(C)c1ccc(N(C(C)C(C)C)S(=O)(=O)c2ccc(OCC3CCOCC3)cc2)nc1` (stereo not drawn) [Example 38, N-(5-isopropylpyridin-2-yl)-N-(3-methylbutan-2-yl)-4-((tetrahydro-2H-pyran-4-yl)methoxy)benzenesulfonamide] was tested, and the IC50 [2] was ≤ 31.6 nM and the IC50 [1] was 1000 nM.
With `Cc1noc(C)c1COc1ccc(S(=O)(=O)N(CC2CCC2)c2ccc(C(C)C)cn2)cc1` [Example 47, N-(cyclobutylmethyl)-4-((3,5-dimethylisoxazol-4-yl)methoxy)-N-(5-isopropylpyridin-2-yl)benzenesulfonamide] the IC50 [2] was ≤ 31.6 nM.
For `CCC(C)CN(c1ccc(C(C)C)cn1)S(=O)(=O)c1ccc(OCc2c(C)noc2C)cc1` (stereo not drawn) [Example 49, 4-((3,5-dimethylisoxazol-4-yl)methoxy)-N-(5-isopropylpyridin-2-yl)-N-(2-methylbutyl)benzenesulfonamide], the IC50 [2] was ≤ 31.6 nM.
